Experimental data taken from paper PMC8325676, “The tea plant CsLHT1 and CsLHT6 transporters take up amino acids, as a nitrogen source, from the soil of organic tea plantations” (Horticulture Research, 2021).

Legend:
CsLHT1 = details: 10-500 µM 15N-Glu, 10 min, 30°C; labelled compound
[1] = substrate: N[C@@H](CCC(=O)O)C(=O)O; assay: cells, lysate or membranes; type: cell-based, Camellia sinensis; details: 0.5-20 mM 15N-Glu, 10 min, 30°C, labelled compound

Q: How did the Km (CsLHT1) turn out when N[C@@H](CCC(=O)O)C(=O)O [15N-Glu] was run?
A: The Km was 39.9 µM.

B1: CsLHT6 (Camellia sinensis) (protein)
chain: MVSNSPPAPKEVPTEEDQWTEKGPPREAKWWYSTFHTVTAMVGAGVLSLPYAMAYLGWGPGTMLLVFSWCITLNTMWQMIQLHECVPGVRFDHYYDLGRHAFGPKLGPWIVLPQQLIVQVGCDIVYMVTGGKCLKKFMEIVCTNCTRIKQSYWICIFGSTHFFLSQLPNFNSVSGVSLAAAIMSLSYSTIAWVGCLSKGRVENVSYAYKKTSGADSMFRVFNALGEITFAYAGHAVVLEIQATVPSTPEMPSKVPMWKGAVWAYFINAICYFPVALIGYWAFGQDVADNVLVALERPSWLIAAANLMVVIHVIGSYQVYAMPVFDLLEKAMVKRLSFPPGIGLRIIVRSAYVAFTLFVGVTFPFFGDLLGFFGGFGFAPTSYFLPSIIWLIIKKPKRFSISWFINWACIYIGVFVMLASTIGGLRNIVIDSSTYEFYS
notes: cloned from root cDNA
Q: Which Km [1] does the source give for B1 here?
A: The Km was 2500 µM.
